pEC50, pIC50: −log10 of the molar value.
Legend:
[1] = system: Huh-7 cells containing HCV Con1 subgenomic replicon (GS4.1 cells); experiment: HCV Replicon Assay (NS4A ELISA); assay type: cell-based; conditions: Hepatitis C virus, Huh-7, 72 hr, NS4A protein by ELISA
Experimental: General procedure: Huh-7 cells containing HCV Con1 subgenomic replicon (GS4.1 cells) were grown in Dulbecco's Modified Eagle Medium (DMEM) supplemented with 10% fetal bovine serum (FBS), 2 mM L-glutamine, 110 mg/L sodium pyruvate, 1× non-essential amino acids, 100 U/mL penicillin-streptomycin, and 0.5 mg/mL G418 (Invitrogen). For dose-response testing, the cells were seeded in 96-well plates at 7.5×10^3 cells/well in a volume of 50 μL, and incubated at 37° C./5% CO2. Three hours after plating, 50 μL of ten 2-fold serial dilutions of compounds (highest concentration, 75 μM) were added, and cell cultures were incubated at 37° C./5% CO2 in the presence of 0.5% DMSO. Alternatively, compounds were tested at a single concentration of 15 μM. In all cases, Huh-7 cells lacking the HCV replicon served as negative control. The cells were incubated in the presence of compounds for 72 hr after which they were monitored for expression of the NS4A protein by enzyme-linked immunosorbent assay (ELISA). For this, the plates were then fixed for 1 min with acetone/methanol (1:1, v/v), washed twice with phosphate-buffered saline (PBS), 0.1% Tween 20, blocked for 1 hr at room temperature with TNE buffer containing 10% FBS and then incubated for 2 hr at 37° C. with the anti-NS4A mouse monoclonal antibody A-236 (ViroGen) diluted in the same buffer. After washing three times with PBS, 0.1% Tween 20, the cells were incubated 1 hr at 37° C. with anti-mouse immunoglobulin G-peroxidase conjugate in TNE, 10% FBS. After washing as described above, the reaction was developed with O-phenylenediamine (Zymed). The reaction was stopped after 30 min with 2 NH2SO4, and absorbance was read at 492 nm using Sunrise Tecan spectrophotometer. EC50 values were determined from the % inhibition versus concentration data using a sigmoidal non-linear regression analysis based on four parameters with Tecan Magellan software. When screening at a single concentration, the results were expressed as % inhibition at 15 μM.

HCV NS3-NS4A protease = molecular target: T1, HCV NS3-NS4A protease (Hepatitis C virus genotype 1b, UniProt P26663); experiment: HCV Protease Assay (SensoLyte 620 HCV Protease Assay kit); assay type: biochemical; conditions: 1.2 nM HCV NS3-NS4A protease, 60 min at room temperature, 5% DMSO
T1 construct: made in house
Experimental: General procedure: Measurement of the inhibitory effect of compounds on HCV protease activity was performed with the SensoLyte™ 620 HCV Protease Assay kit from AnaSpec, Inc. (San Jose, Calif.) under conditions described by the supplier using 1.2 nM HCV NS3-NS4A protease, which was obtained according to Taremi et al. (Protein Science, 1998, 7, 2143-2149). The compounds were tested at a variety of concentrations in assay buffer containing a final DMSO concentration of 5%. Reactions were allowed to proceed for 60 min at room temperature and fluorescence measurements were recorded with a Tecan Infinity Spectrofluorimeter. The IC50 values were determined from the percent inhibition versus concentration data using a sigmoidal non-linear regression analysis based on four parameters with Tecan Magellan software.

[2] = Cytotoxicity evaluation (Cell Titer 96 AQueous One Solution Cell Proliferation Assay); assay type: cell-based; conditions: human; GS4.1 cells, cellular viability
Experimental: For cytotoxicity evaluation, GS4.1 cells were treated with compounds as described above and cellular viability was monitored using the Cell Titer 96 AQueous One Solution Cell Proliferation Assay (Promega). CC50 values were determined from the % cytotoxicity versus concentration data with Tecan Magellan software as described above.

T1 sequence (P26663 1027-1208): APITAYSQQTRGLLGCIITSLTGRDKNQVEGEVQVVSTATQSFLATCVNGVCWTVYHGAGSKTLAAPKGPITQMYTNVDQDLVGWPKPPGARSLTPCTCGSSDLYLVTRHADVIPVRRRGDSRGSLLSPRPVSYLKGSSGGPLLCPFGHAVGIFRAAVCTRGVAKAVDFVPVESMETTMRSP

`COc1cc(OC)c2c(O[C@H]3C[C@H]4C(=O)N(C)CCCC/C=C\[C@@H]5C[C@@]5(C(=O)NS(=O)(=O)C5(C)CC5)NC(=O)N4C3)cc(-c3nc(C(C)C)cs3)nc2c1` [Compound 56e, (Z)-(4R,6S,15S,17S)-[17-[5,7-dimethoxy-2-(4-isopropylthiazol-2-yl)quinolin-4-yloxy]-13-N-methyl-2,14-dioxo-1,3,13-triazatricyclo[13.3.0.0]octadec-7-en-4-yl]carbonyl(1-methyl-cyclopropyl)sulfonamide] gave a pEC50 [1] of 5.00 to 6.00, a pIC50 (HCV NS3-NS4A protease) greater than 6.00 and a CC50 [2] greater than 75000 nM.

Work on `COc1ccc2c(O[C@H]3C[C@H]4C(=O)N(C)CCCC/C=C\[C@@H]5C[C@@]5(C(=O)NS(=O)(=O)C5(C)CC5)NC(=O)N4C3)cc(-n3ccc(C(F)(F)F)n3)nc2c1Cl` [Compound 91a, (Z)-(4R,6S,15S,17S)-[17-[8-chloro-7-methoxy-2-(3-trifluoromethyl-1H-pyrazol-1-yl)quinolin-4-yloxy]-13-N-methyl-2,14-dioxo-1,3,13-triazatricyclo[13.3.0.0]octadec-7-ene-4-yl]carbonyl(1-methylcyclopropyl)sulfonamide] yielded a pEC50 [1] greater than 6.00, a pIC50 (HCV NS3-NS4A protease) greater than 6.00 and a CC50 [2] greater than 75000 nM.

Work on `COc1ccc2c(O[C@H]3C[C@H]4C(=O)N(C)CCCC/C=C\[C@@H]5C[C@@]5(C(=O)NS(=O)(=O)C5(C)CC5)NC(=O)N4C3)cc(-c3nc(C(C)C)cs3)nc2c1` [Compound 56a, (Z)-(4R,6S,15S,17S)-[17-[7-methoxy-2-(4-isopropylthiazol-2-yl)quinolin-4-yloxy]-13-N-methyl-2,14-dioxo-1,3,13-triazatricyclo-[13.3.0.0]octadec-7-en-4-yl]carbonyl(1-methyl-cyclopropyl)sulfonamide] yielded a pEC50 [1] greater than 6.00, a pIC50 (HCV NS3-NS4A protease) greater than 6.00 and a CC50 [2] greater than 75000 nM.

In the case of `C#Cc1csc(-c2cc(O[C@H]3C[C@H]4C(=O)N(C)CCCC/C=C\[C@@H]5C[C@@]5(C(=O)NS(=O)(=O)C5CC5)NC(=O)N4C3)c3ccc(OC)c(Cl)c3n2)n1` [Compound G1, (Z)-(4R,6S,15S,17S)-[17-[8-chloro-7-methoxy-2-(4-ethynylthiazol-2-yl)quinolin-4-yloxy]-13-N-methyl-2,14-dioxo-1,3,13-triazatricyclo-[13.3.0.0]octadec-7-en-4-yl]carbonyl(cyclopropyl)sulfonamide], the pEC50 [1] was greater than 6.00, the pIC50 (HCV NS3-NS4A protease) was greater than 6.00 and the CC50 [2] was 10000 to 75000 nM.

In the case of `COc1ccc2c(O[C@H]3C[C@H]4C(=O)N(C)CCCC/C=C\[C@@H]5C[C@@]5(C(=O)NS(=O)(=O)C5CC5)NC(=O)N4C3)cc(-c3nc(C(C)C)cs3)nc2c1C` [Compound 62b, (Z)-(4R,6S,15S,17S)-[17-[7-methoxy-8-methyl-2-(4-isopropylthiazol-2-yl)quinolin-4-yloxy]-13-N-methyl-2,14-dioxo-1,3,13-triazatricyclo[13.3.0.0]octadec-7-en-4-yl]carbonyl(cyclopropyl)sulfonamide], the pEC50 [1] was greater than 6.00, the pIC50 (HCV NS3-NS4A protease) was greater than 6.00 and the CC50 [2] was greater than 75000 nM.

`COc1ccc2c(O[C@H]3C[C@H]4C(=O)N(C)CCCC/C=C\[C@@H]5C[C@@]5(C(=O)NS(=O)(=O)C5CC5)NC(=O)N4C3)cc(-n3ccc(C(C)C)n3)nc2c1C` [Compound 91f, (Z)-(4R,6S,15S,17S)-[17-[8-methyl-7-methoxy-2-(3-isopropyl-1H-pyrazol-1-yl)quinolin-4-yloxy]-13-N-methyl-2,14-dioxo-1,3,13-triazatricyclo[13.3.0.0]octadec-7-ene-4-yl]carbonyl(cyclopropyl)sulfonamide] gave a pEC50 [1] greater than 6.00, a pIC50 (HCV NS3-NS4A protease) greater than 6.00 and a CC50 [2] greater than 75000 nM.

With `C#Cc1csc(-c2cc(O[C@H]3C[C@H]4C(=O)N(C)CCCC/C=C\[C@@H]5C[C@@]5(C(=O)NS(=O)(=O)C5(C)CC5)NC(=O)N4C3)c3ccc(OC)c(Cl)c3n2)n1` [Compound G2, (Z)-(4R,6S,15S,17S)-[17-[8-chloro-7-methoxy-2-(4-ethynylthiazol-2-yl)quinolin-4-yloxy]-13-N-methyl-2,14-dioxo-1,3,13-triazatricyclo-[13.3.0.0]octadec-7-en-4-yl]carbonyl(1-methyl-cyclopropyl)sulfonamide] the pEC50 [1] was greater than 6.00, the pIC50 (HCV NS3-NS4A protease) was greater than 6.00 and the CC50 [2] was 10000 to 75000 nM.

`COc1ccc2c(O[C@H]3C[C@H]4C(=O)N(C)CCCC/C=C\[C@@H]5C[C@@]5(C(=O)NS(=O)(=O)C5(C)CC5)NC(=O)N4C3)cc(-c3csc(C(F)(F)F)n3)nc2c1C` [Compound O4, (Z)-(4R,6S,15S,17S)-[17-[7-methoxy-8-methyl-2-(2-trifluoromethylthiazol-4-yl)quinolin-4-yloxy]-13-N-methyl-2,14-dioxo-1,3,13-triazatricyclo-[13.3.0.0]octadec-7-en-4-yl]carbonyl-(1-methylcyclopropyl)sulfonamide] showed a pEC50 [1] greater than 6.00, a pIC50 (HCV NS3-NS4A protease) greater than 6.00 and a CC50 [2] greater than 75000 nM.

In the case of `COc1ccc2c(O[C@H]3C[C@H]4C(=O)N(C)CCCC/C=C\[C@@H]5C[C@@]5(C(=O)NS(C)(=O)=O)NC(=O)N4C3)cc(-c3nc(C(C)C)cs3)nc2c1C` [Compound 63b], the pEC50 [1] was 5.00 to 6.00, the pIC50 (HCV NS3-NS4A protease) was greater than 6.00 and the CC50 [2] was greater than 75000 nM.

Work on `C#Cc1csc(-c2cc(O[C@H]3C[C@H]4C(=O)N(C)CCCC/C=C\[C@@H]5C[C@@]5(C(=O)NS(=O)(=O)C5(C)CC5)NC(=O)N4C3)c3ccc(OC)c(C)c3n2)n1` [Compound G4, (Z)-(4R,6S,15S,17S)-[17-[7-methoxy-8-methyl-2-(4-ethynylthiazol-2-yl)quinolin-4-yloxy]-13-N-methyl-2,14-dioxo-1,3,13-triazatricyclo-[13.3.0.0]octadec-7-en-4-yl]carbonyl (1-methylcyclopropyl)sulfonamide] yielded a pEC50 [1] greater than 6.00, a pIC50 (HCV NS3-NS4A protease) greater than 6.00 and a CC50 [2] of 10000 to 75000 nM.

For `COc1ccc2c(O[C@H]3C[C@H]4C(=O)N(C)CCCC/C=C\[C@@H]5C[C@@]5(C(=O)NS(=O)(=O)C5(C)CC5)NC(=O)N4C3)cc(-n3ccc(C(C)C)n3)nc2c1Cl` [Compound 91d, (Z)-(4R,6S,15S,17S)-[17-[8-chloro-7-methoxy-2-(3-isopropyl-1H-pyrazol-1-yl)quinolin-4-yloxy]-13-N-methyl-2,14-dioxo-1,3,13-triazatricyclo[13.3.0.0]octadec-7-ene-4-yl]carbonyl(1-methylcyclopropyl)sulfonamide], the pEC50 [1] was greater than 6.00, the pIC50 (HCV NS3-NS4A protease) was greater than 6.00 and the CC50 [2] was greater than 75000 nM.

For `COc1ccc2c(O[C@H]3C[C@H]4C(=O)N(C)CCCC/C=C\[C@@H]5C[C@@]5(C(=O)NS(=O)(=O)C5CC5)NC(=O)N4C3)cc(-c3nc(C)cs3)nc2c1Cl` [AN, (Z)-(4R,6S,15S,17S)-[17-[8-chloro-7-methoxy-2-(4-methylthiazol-4-yl)quinolin-4-yloxy]-13-N-methyl-2,14-dioxo-1,3,13-triazatricyclo-[13.3.0.0]octadec-7-en-4-yl]carbonyl-(cyclopropyl)sulfonamide], the pEC50 [1] was greater than 6.00, the pIC50 (HCV NS3-NS4A protease) was greater than 6.00 and the CC50 [2] was 10000 to 75000 nM.

For `COc1ccc2c(O[C@H]3C[C@H]4C(=O)N(C)CCCC/C=C\[C@@H]5C[C@@]5(C(=O)NS(=O)(=O)C5CC5)NC(=O)N4C3)cc(-c3nc(C4CCC4)cs3)nc2c1Cl` [AC2, (Z)-(4R,6S,15S,17S)-[17-[8-chloro-7-methoxy-2-(4-cyclobutylthiazol-2-yl)quinolin-4-yloxy]-13-N-methyl-2,14-dioxo-1,3,13-triazatricyclo-[13.3.0.0]octadec-7-en-4-yl]carbonyl-(cyclopropyl)sulfonamide], the pEC50 [1] was greater than 6.00, the pIC50 (HCV NS3-NS4A protease) was greater than 6.00 and the CC50 [2] was 10000 to 75000 nM.
